≈ marks a conversion by molar mass, not a printed value. Like-named read-outs stand apart in the source and are kept apart here.
Key:
PC-10 cells = assay: PC-10 cell growth inhibition test; type: cell-based; conditions: Homo sapiens, read-out: cell growth inhibitory activity IC50, PC-10
Description: (§1) Compound (I) was examined for C-kinase inhibitory activity and cell growth inhibitory activity by the following method.
(§2) MCF 7 cells (4.5×10^4 cells/ml) prepared in RPMI 1640 medium containing 10% fetal calf serum, 10 μg/ml insulin and 10^-8 M estradiol are put into wells of a 96-well microtiter plate in the amount of 0.1 ml per each well. After incubation at 37° C. overnight in CO2 -incubator, 0.05 ml each of a test sample appropriately diluted with the culture medium is added to each well. In the case of contact for 72 hours, the cells are further cultured in CO2 -incubator, and then the culture supernatant is removed and the wells are washed once with PBS(-). Thereafter, 0.1 ml of fresh medium is added to each well, followed by culturing at 37° C. for 72 hours in CO2 -incubator. After the culture supernatant is removed, 0.1 ml of the culture medium containing 0.02% Neutral Red is added to each well, followed by culturing at 37° C. for one hour in CO2 -incubator, whereby the cells are stained. Then, the culture supernatant is removed and the cells are washed once with physiological saline. The pigment is extracted with 0.001N HCl/30% ethanol and absorption is measured at 550 nm with a microplate reader. By comparing the absorption of intact cells with those of the cells treated with a test compound in known concentrations, the concentration of the test compound at which growth of the cells is inhibited 50% is calculated as IC50.
(2) PC-10 cell growth inhibition test:
PC-10 cells (5×10^4 cells/ml) prepared in MEM medium containing 10% fetal calf serum and 2 mM glutamine are put into wells of a 96-well microtiter plate in the amount of 0.1 ml per each well.
Thereafter, the test is carried out in the same manner as in the MCF 7 cell growth inhibition test.

[1] = molecular target: C-kinase (protein kinase C); assay: C-Kinase inhibitory activity test; type: biochemical; conditions: enzyme activity inhibited 50%
HeLaS3 cells = assay: HeLaS3 cell growth inhibition test; type: cell-based; conditions: Homo sapiens, read-out: cell growth inhibitory activity IC50, HeLaS3
Description: as §1, §2
(3) HeLaS3 cell growth inhibition test:
HeLaS3 cells (3×10^4 cells/ml) prepared in MEM medium containing 10% fetal calf serum and 2 mM glutamine are put into wells of a 96-well microtiter plate in the amount of 0.1 ml per each well.
Thereafter, the test is carried out in the same manner as in (1).

[2] = literature, in words; cited from earlier work
histamine release = conditions: literature, in words; cited from earlier work
[3] = literature, in words; cited from earlier work; remark: listed apart in the source
C-kinase = conditions: literature, in words; cited from earlier work
MCF 7 cells = assay: MCF 7 cell growth inhibition test; type: cell-based; conditions: Homo sapiens, read-out: cell growth inhibitory activity IC50, MCF-7
Description: as §1
(1) MCF 7 cell growth inhibition test:
as §2

COLO320DM cells = assay: COLO320DM cell growth inhibition test; type: cell-based; conditions: Homo sapiens, COLO 320DM, read-out: cell growth inhibitory activity IC50, COLO320DM
Description: as §2, with “After” for “MCF 7 cells (4.5×10^4 cells/ml) prepared in RPMI 1640 medium containing 10% fetal calf serum, 10 μg/ml insulin and 10^-8 M estradiol are put into wells of a 96-well microtiter plate in the amount of 0.1 ml per each well. After”, “reader.” for “reader. By comparing the absorption of intact cells with those of the cells treated with a test compound in known concentrations, the concentration of the test compound at which growth of the cells is inhibited 50% is calculated as IC50.”
(4) COLO320DM cell growth inhibition test:
Thereafter, the test is carried out in the same manner as in (1) except that the cells are counted with a microcell counter.

[4] = PC10, PC-10 cells, contact for 72 hours
[5] = HeLa S3, HeLaS3 cells, contact for 72 hours
[6] = MCF7, MCF-7 cells, contact for 72 hours
[7] = COLO320DM cells, cells counted with a microcell counter

C-Kinase inhibitory activity IC50 [1] [µg/mL] | IC50 (HeLaS3 cells; [5]) [µg/mL] | SMILES | IC50 (PC-10 cells; [4]) [µg/mL] | also measured
 |  | CN[C@@H]1C[C@H]2O[C@@](C)([C@@H]1OC)n1c3ccccc3c3c4c(c5c6ccccc6n2c5c31)C(=O)NC4 [Staurosporine] |  | antibacterial activity [2]: antibacterial activity
0.018 | 0.95 (≈ 1.91 µM) | C[C@]12O[C@H](C[C@]1(O)C(=O)NCCO)n1c3ccccc3c3c4c(c5c6ccccc6n2c5c31)CNC4=O (relative stereo) [Compound 3] | 0.68 (≈ 1.37 µM) | 
 |  | COC(=O)[C@@]1(O)C[C@H]2O[C@]1(C)n1c3ccccc3c3c4c(c5c6ccccc6n2c5c31)C(=O)NC4 (relative stereo) [Compound K-252] |  | activity to inhibit histamine release (histamine release): activity to inhibit histamine release; anti-allergic activity [3]: anti-allergic activity; antibacterial activity [2]: antibacterial substances
0.003 | 0.22 (≈ 0.486 µM) | C[C@]12O[C@H](C[C@]1(O)C(N)=O)n1c3ccccc3c3c4c(c5c6ccccc6n2c5c31)CNC4=O (relative stereo) [Compound 2] | 0.03 (≈ 0.0663 µM) | 
0.038 | 0.14 (≈ 0.288 µM) | CC12OC(CC13COS(=O)O3)n1c3ccccc3c3c4c(c5c6ccccc6n2c5c31)CNC4=O (centres unmarked) [Compound 55] | 0.64 (≈ 1.32 µM) | 
0.005 | 0.59 (≈ 1.26 µM) | C[C@]12O[C@H](C[C@]1(O)C(=O)NO)n1c3ccccc3c3c4c(c5c6ccccc6n2c5c31)CNC4=O (relative stereo) [Compound 1] | 0.14 (≈ 0.299 µM) | 
 |  | CN(C)CCCN1c2ccccc2Sc2ccc(Cl)cc21 [chlorpromazine] |  | C-kinase inhibitory activity (C-kinase): low
0.015 | 0.28 (≈ 0.581 µM) | CC12OC(CC13COC(=S)O3)n1c3ccccc3c3c4c(c5c6ccccc6n2c5c31)CNC4=O (centres unmarked) [Compound 54] | 0.11 (≈ 0.228 µM) | IC50 (MCF 7 cells; [6]): 1 µg/mL (≈ 2.08 µM); IC50 (COLO320DM cells; [7]): 0.08 µg/mL (≈ 0.166 µM)
 |  | ClCCN(Cc1ccccc1)Cc1ccccc1 [dibenamine] |  | C-kinase inhibitory activity (C-kinase): low
 |  | C[C@]12O[C@H](C[C@]1(O)C(=O)O)n1c3ccccc3c3c4c(c5c6ccccc6n2c5c31)CNC4=O (relative stereo) [KT-5556] |  | activity to inhibit histamine release (histamine release): activity to inhibit histamine release; antibacterial activity [2]: antibacterial substances
0.06 | > 1 | C[S+]([O-])CC1(O)CC2OC1(C)n1c3ccccc3c3c4c(c5c6ccccc6n2c5c31)C(=O)NC4 (centres unmarked) [Compound 46] | 0.27 (≈ 0.556 µM) | 
0.02 | 0.04 (≈ 0.0861 µM) | CC12OC(CC13CNC(=O)O3)n1c3ccccc3c3c4c(c5c6ccccc6n2c5c31)CNC4=O (centres unmarked) [Compound 57] | 0.1 (≈ 0.215 µM) | IC50 (MCF 7 cells; [6]): 0.15 µg/mL (≈ 0.323 µM); IC50 (COLO320DM cells; [7]): 0.37 µg/mL (≈ 0.797 µM)
 |  | NCCCCCCNS(=O)(=O)c1cccc2c(Cl)cccc12 [Compound W-7, N-(6-aminohexy)-5-chloro-1-naphthalenesulfonamide] |  | C-kinase inhibitory activity (C-kinase): low
0.06 | 0.44 (≈ 0.947 µM) | C[C@]12O[C@H](C[C@]1(O)CN=[N+]=[N-])n1c3ccccc3c3c4c(c5c6ccccc6n2c5c31)CNC4=O (relative stereo) [Compound 29] | 0.71 (≈ 1.53 µM) | 
0.017 | 0.28 (≈ 0.583 µM) | CC12OC(CC13CNC(=S)O3)n1c3ccccc3c3c4c(c5c6ccccc6n2c5c31)CNC4=O (centres unmarked) [Compound 58] | 0.69 (≈ 1.44 µM) | 
 |  | CCCCNc1ccc(C(=O)OCCN(C)C)cc1 [tetracaine] |  | C-kinase inhibitory activity (C-kinase): low
0.015 | 0.07 (≈ 0.16 µM) | C[C@]12O[C@H](C[C@]1(O)CN)n1c3ccccc3c3c4c(c5c6ccccc6n2c5c31)CNC4=O (relative stereo) [Compound 30] | 0.04 (≈ 0.0912 µM) | 
0.11 | 0.55 (≈ 1.17 µM) | CSCC1(O)CC2OC1(C)n1c3ccccc3c3c4c(c5c6ccccc6n2c5c31)C(=O)NC4 (centres unmarked) [Compound 45] | > 1 | 
 |  | CN1CCN(CCCN2c3ccccc3Sc3ccc(C(F)(F)F)cc32)CC1 [trifluoperazine] |  | C-kinase inhibitory activity (C-kinase): low

SMILES | C-Kinase inhibitory activity IC50 [1] [µg/mL] | IC50 (HeLaS3 cells; [5]) [µg/mL] | IC50 (PC-10 cells; [4]) [µg/mL] | also measured
COC(=O)[C@@]1(O)C[C@H]2O[C@]1(C)n1c3ccccc3c3c4c(c5c6cc(Br)ccc6n2c5c31)C(=O)NC4 (relative stereo) [Compound 7] | 0.028 | 0.15 (≈ 0.275 µM) | 0.76 (≈ 1.39 µM) | 
CC12OC(CC1O)n1c3ccccc3c3c4c(c5c6ccccc6n2c5c31)CNC4=O (centres unmarked) [Compound 48] | 0.022 |  |  | IC50 (PC-10 cells; PC10, 72 h): 0.48 µg/mL (≈ 1.17 µM); IC50 (HeLaS3 cells; HeLa S3, 72 h): 0.72 µg/mL (≈ 1.76 µM)
COC(=O)[C@@]1(O)C[C@H]2O[C@]1(C)n1c3ccccc3c3c4c(c5c6cc(O)ccc6n2c5c31)C(=O)NC4 (relative stereo) [Compound 15] | 0.009 |  |  | IC50 (PC-10 cells; PC10, 72 h): 0.11 µg/mL (≈ 0.228 µM); IC50 (HeLaS3 cells; HeLa S3, 72 h): 0.48 µg/mL (≈ 0.993 µM)
C[C@]12O[C@H](C[C@]1(O)CO)n1c3ccccc3c3c4c(c5c6ccccc6n2c5c31)CNC4=O (relative stereo) [Compound 20] | 0.02 |  |  | IC50 (PC-10 cells; PC10, 72 h): 0.11 µg/mL (≈ 0.25 µM); IC50 (MCF 7 cells; MCF7, 72 h): 0.55 µg/mL (≈ 1.25 µM); IC50 (COLO320DM cells): 0.05 µg/mL (≈ 0.114 µM); IC50 (HeLaS3 cells; HeLa S3, 72 h): 0.07 µg/mL (≈ 0.159 µM)
CCOC(=O)[C@@]1(O)C[C@H]2O[C@]1(C)n1c3ccccc3c3c4c(c5c6ccccc6n2c5c31)C(=O)NC4 (relative stereo) [Compound 4] | 0.13 | 0.6 (≈ 1.25 µM) | > 1 | 
COC(=O)[C@@]1(O)C[C@H]2O[C@]1(C)n1c3ccccc3c3c4c(c5c6ccccc6n2c5c31)C(=O)N(Cl)C4 (relative stereo) [Compound 5] | 0.034 | 0.51 (≈ 1.02 µM) | 0.84 (≈ 1.67 µM) | 

— US4923986A, “Derivatives of physiologically active substance K-252” (Kyowa Hakko Kogyo Co., Ltd., priority 1988, dated 1990)
